Measurements from patent publication US20010023293A1, “2-hydroxyphenyl benzotriazoles as uv-a/b filters” (ROCHE VITAMINS INC., priority 2000, published 2001).

Legend:
[1] = UV absorption spectrum in CH2Cl2; type: physicochemical
[2] = Miscibility with cosmetic solvents such as Cétiol LC (liposolubility); conditions: such as Cétiol LC (Cocoyl caprylate caprate)
[3] = Photostability under irradiation at high dilution with a Heraeus 150 W Hg-lamp; conditions: irradiation at high dilution (50 ppm)

| Miscibility with cosmetic solvents [2] | Photostability [3] | SMILES | UV absorption maximum, first (UV-B) band [1] | UV absorption maximum, second (UV-A) band [1] | melting point |
| --- | --- | --- | --- | --- | --- |
| – | – | CCCCCC(CC)c1cc(C)cc(-n2nc3ccccc3n2)c1O (centres unmarked) [Example 3, 2-(benzotriazole-2-yl)-4-methyl-6-(3-octyl)-phenol] | 306 nm | 346 nm | – |
| easily mixable | photostable | C=CC(CCCCC)c1cc(C)cc(-n2nc3ccccc3n2)c1O (centres unmarked) [Example 1, 2-Benzotriazole-2-yl-4-methyl-6-(1-octen-3-yl)-phenol] | 306 nm | 344 nm | 37 to 38 °C |
| – | – | CCCCC=CC(C)c1cc(C)cc(-n2nc3ccccc3n2)c1O (centres unmarked) [8% byproduct, 2-(benzotriazole-2-yl)-4-methyl-6-(3-octen-2-yl)-phenol] | 306 nm | 344 nm | – |
| – | – | C=CC(CCC)c1cc(C(C)(C)CC(C)(C)C)cc(-n2nc3ccccc3n2)c1O (centres unmarked) [Example 2, 2-(benzotriazole-2-yl)-4-(1,1,3,3-tetramethylbutyl)-6-(1-hexen-3-yl)-phenol] | 305 nm | 343 nm | 80 to 81 °C |
| – | – | CCCC(CC)c1cc(C(C)(C)CC(C)(C)C)cc(-n2nc3ccccc3n2)c1O (centres unmarked) [Example 4, 2-(benzotriazole-2-yl)-4-(1,1,3,3-tetramethylbutyl)-6-(3-hexyl)-phenol] | 306 nm | 346 nm | – |
